Reference: patent US20150246938A1, “NOVEL OLEFIN DERIVATIVE” (SHIONOGI & CO., LTD., priority 2011, published 2015)

What follows are compounds tested against T1, recombinant human ACC2 (Homo sapiens, UniProt O00763) (assay: Measurement of inhibitory activity on human ACC2 (MALDI-TOF MS, acetyl CoA to malonyl CoA conversion)). Conditions: inhibition activity on human ACC2, Table 82; read-out: IC50.
T1 construct: a cDNA encoding human ACC2 (27-2458) was cloned from human kidney cDNA library (Clontech); His-tag (N); made in house; host or cells: Sf-9 insect cells (Bac-to-Bac baculovirus)
T1 sequence (O00763 27-2458): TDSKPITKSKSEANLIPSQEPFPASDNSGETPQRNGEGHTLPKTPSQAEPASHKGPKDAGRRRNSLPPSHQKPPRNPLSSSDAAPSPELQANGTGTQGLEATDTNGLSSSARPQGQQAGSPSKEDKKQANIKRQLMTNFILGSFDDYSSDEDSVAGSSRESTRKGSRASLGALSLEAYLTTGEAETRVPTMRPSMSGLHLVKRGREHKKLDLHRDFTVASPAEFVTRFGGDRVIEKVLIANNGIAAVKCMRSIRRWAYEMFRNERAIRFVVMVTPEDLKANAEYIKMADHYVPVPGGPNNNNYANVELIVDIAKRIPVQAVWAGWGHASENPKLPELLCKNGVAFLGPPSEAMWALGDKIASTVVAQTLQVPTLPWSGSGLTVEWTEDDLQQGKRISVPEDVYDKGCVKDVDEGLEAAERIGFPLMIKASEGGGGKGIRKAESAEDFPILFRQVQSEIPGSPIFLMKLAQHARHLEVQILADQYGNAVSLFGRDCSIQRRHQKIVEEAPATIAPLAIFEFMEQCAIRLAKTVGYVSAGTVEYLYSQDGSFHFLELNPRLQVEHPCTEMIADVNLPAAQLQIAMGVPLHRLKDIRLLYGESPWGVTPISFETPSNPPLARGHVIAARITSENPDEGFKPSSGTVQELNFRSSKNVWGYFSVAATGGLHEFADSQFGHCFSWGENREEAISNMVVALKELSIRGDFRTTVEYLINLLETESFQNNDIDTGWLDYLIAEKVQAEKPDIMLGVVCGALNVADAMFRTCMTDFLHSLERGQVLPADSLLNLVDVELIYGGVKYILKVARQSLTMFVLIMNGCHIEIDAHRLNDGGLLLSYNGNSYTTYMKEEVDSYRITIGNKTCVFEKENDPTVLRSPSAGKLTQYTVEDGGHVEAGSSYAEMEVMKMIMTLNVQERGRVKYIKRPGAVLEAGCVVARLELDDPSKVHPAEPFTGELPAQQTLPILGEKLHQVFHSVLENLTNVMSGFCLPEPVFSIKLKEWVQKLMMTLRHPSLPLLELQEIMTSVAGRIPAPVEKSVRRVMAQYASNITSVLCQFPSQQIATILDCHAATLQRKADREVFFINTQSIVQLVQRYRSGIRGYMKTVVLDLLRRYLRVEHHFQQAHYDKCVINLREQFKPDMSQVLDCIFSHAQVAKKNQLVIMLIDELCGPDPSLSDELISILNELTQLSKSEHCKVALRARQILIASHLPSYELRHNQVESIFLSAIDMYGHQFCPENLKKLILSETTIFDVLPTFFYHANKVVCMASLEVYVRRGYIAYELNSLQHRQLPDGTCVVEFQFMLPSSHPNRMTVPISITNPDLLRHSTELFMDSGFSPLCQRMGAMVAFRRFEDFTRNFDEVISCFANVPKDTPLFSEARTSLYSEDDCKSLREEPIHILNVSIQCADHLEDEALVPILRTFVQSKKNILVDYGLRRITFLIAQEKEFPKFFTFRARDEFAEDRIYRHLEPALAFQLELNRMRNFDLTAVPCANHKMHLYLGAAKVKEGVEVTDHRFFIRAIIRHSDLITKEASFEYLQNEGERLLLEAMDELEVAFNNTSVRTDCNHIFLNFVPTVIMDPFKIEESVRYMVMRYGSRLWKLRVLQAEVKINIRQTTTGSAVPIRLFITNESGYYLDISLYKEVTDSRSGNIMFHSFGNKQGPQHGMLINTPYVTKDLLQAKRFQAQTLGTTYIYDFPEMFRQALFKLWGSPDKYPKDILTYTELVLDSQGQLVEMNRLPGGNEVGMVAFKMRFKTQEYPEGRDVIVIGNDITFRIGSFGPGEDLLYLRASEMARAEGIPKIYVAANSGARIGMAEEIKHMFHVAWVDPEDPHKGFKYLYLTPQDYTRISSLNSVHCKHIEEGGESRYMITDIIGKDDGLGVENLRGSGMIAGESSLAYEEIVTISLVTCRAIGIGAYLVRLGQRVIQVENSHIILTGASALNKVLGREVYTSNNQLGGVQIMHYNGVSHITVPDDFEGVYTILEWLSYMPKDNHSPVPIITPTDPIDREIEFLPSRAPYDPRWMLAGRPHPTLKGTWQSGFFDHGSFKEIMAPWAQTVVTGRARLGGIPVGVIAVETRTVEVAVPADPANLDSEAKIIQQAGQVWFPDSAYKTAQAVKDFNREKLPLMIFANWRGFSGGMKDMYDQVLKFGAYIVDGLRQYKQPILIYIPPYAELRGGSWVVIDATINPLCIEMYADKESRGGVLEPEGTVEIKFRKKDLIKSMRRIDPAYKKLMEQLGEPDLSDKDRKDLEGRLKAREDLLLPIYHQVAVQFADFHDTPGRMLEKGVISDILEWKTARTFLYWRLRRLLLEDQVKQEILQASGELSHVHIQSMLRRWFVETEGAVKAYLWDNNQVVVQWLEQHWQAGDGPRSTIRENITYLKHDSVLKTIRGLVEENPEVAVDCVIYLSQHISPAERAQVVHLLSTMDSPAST
Assay type: biochemical
Method: To express human ACC2, Sf-9 cells were infected with recombinant baculovirus. After infected cells were disrupted, the filtrated lysate was subjected to Ni-affinity chromatography and anion-exchange chromatography. The fractions containing human ACC2 protein were pooled as recombinant human ACC2 solution.
Recombinant human ACC1 and recombinant human ACC2, which were prepared by the method mentioned above, were preincubated with assay buffer solution (50 mM HEPES-KOH (pH 7.4), 10 mM magnesium chloride, 6-10 mM potassium citrate, 4 mM reduced form of glutathione, 1.5 mg/ml bovine serum albumin) for one hour. Then, 0.2 μL of each this invention compound solution (in DMSO) were dispensed to 384-well microplate, 5 μL of the preincubated enzyme solution and 5 μL of substrate solution (50 mM HEPES-KOH (pH 7.4), 1 mM ATP, 0.8 mM acetyl CoA and 25-50 mM potassium bicarbonate) were added to microplate. After centrifugation and shaking, the reaction mixtures were incubated in a humidified box at room temperature for 1 to 3 hours. After the incubation, the enzyme reactions were stopped by the addition of EDTA. Then, after the samples were cocrystallized with CHCA (α-cyano-4-hydroxy cinnamic acid) matrices on MALDI target plate, by using the matrix assist laser deionization time-of-flight mass spectrometer (MALDI-TOF MS), samples were measured in reflector negative mode. Deprotonated ions of acetyl CoA (AcCoA) of substrate and malonyl CoA (MalCoA) of the reaction product were detected, then, the conversion rates of acetyl CoA to malonyl CoA was calculated by the intensity of [MalCoA-H]-/(Intensity of [MalCoA-H]-+Intensity of [AcCoA-H]-) using each signal strength. […] In addition, potassium citrate concentrations in assay buffer solution, potassium hydrogen carbonate concentrations in substrate solution and incubation time were adjusted by each lot of enzyme.
Work on `CCNC(=O)c1cc(C(=O)N[C@@H](C)/C=C/c2cnn(Cc3ccc(OCC4CC4)cc3F)c2)ccn1` [Compound I-318] yielded an IC50 of 67 nM. With `CCNC(=O)c1cc(C(=O)N[C@@H](C)/C=C/c2cnn(Cc3c(F)cc(OCC4CC4)cc3F)c2)ccn1` [Compound I-319] the IC50 was 51 nM. Work on `CCNC(=O)c1cc(C(=O)N[C@@H](C)/C=C/c2cnn(Cc3c(Cl)cc(OCC4CC4)cc3Cl)c2)ccn1` [Compound I-321] yielded an IC50 of 29 nM. `CCCc1ccc(Oc2ccc(/C=C/[C@H](C)NC(C)=O)cn2)c(C)n1` [Compound I-322] was tested, and the IC50 was 490 nM. In the case of `CCCc1cc(C)c(Oc2ccc(/C=C/[C@H](C)NC(C)=O)cn2)cn1` [Compound I-323], the IC50 is reported as 960 nM. In the case of `CCCc1ccc(Oc2ncc(/C=C/[C@H](C)NC(C)=O)cn2)cc1Cl` [Compound I-324], the IC50 is reported as 170 nM. In the case of `CC(=O)N[C@@H](C)/C=C/c1ccc(Oc2ccc(-c3ccccn3)cc2Cl)nc1` [Compound I-325], the IC50 is reported as 120 nM. Compound `CC(=O)N[C@@H](C)/C=C/c1ccc(Oc2ccc(-c3cccnc3)cc2Cl)nc1` [Compound I-326] has an IC50 of 440 nM. For `CC(=O)N[C@@H](C)/C=C/c1ccc(Oc2ccc(C(C)=O)cc2Cl)nc1` [Compound I-327], the IC50 was 340 nM. For `CC(=O)N[C@@H](C)/C=C/c1ccc(Oc2ccc(C(C)(F)F)cc2Cl)nc1` [Compound I-328], the IC50 was 35 nM. For `CC(=O)N[C@@H](C)/C=C/c1ccc(Oc2ccc(C(C)O)cc2Cl)nc1` (some centres unmarked) [Compound I-329], the IC50 was 1100 nM. For `CCCc1cccc(Oc2ccc(/C=C/[C@H](C)NC(C)=O)cn2)n1` [Compound I-330], the IC50 was 3900 nM. `CC(=O)N[C@@H](C)/C=C/c1ccc(Oc2ccc(OS(=O)(=O)C(F)(F)F)cc2Cl)nc1` [Compound I-331] showed an IC50 of 130 nM. Compound `CC(=O)N[C@@H](C)/C=C/c1ccc(Oc2ccc(C(C)F)cc2Cl)nc1` (some centres unmarked) [Compound I-332] has an IC50 of 92 nM. With `CO/N=C(\C)c1ccc(Oc2ccc(/C=C/[C@H](C)NC(C)=O)cn2)c(Cl)c1` [Compound I-333] the IC50 was 180 nM. For `CCOc1ccc(Oc2ncc(/C=C/[C@H](C)NC(C)=O)cc2Cl)c(Cl)c1` [Compound I-334], the IC50 was 47 nM. Work on `CC(=O)N[C@@H](C)/C=C/c1cnc(Oc2ccc(OCC3CC3)cc2Cl)c(Cl)c1` [Compound I-335] yielded an IC50 of 15 nM. With `CCCc1ccc(Oc2ccc(/C=C/[C@H](C)NC(C)=O)cn2)nc1` [Compound I-336] the IC50 was 2000 nM. `CCCCc1ccc(Oc2ccc(/C=C/[C@H](C)NC(C)=O)cn2)c(Cl)c1` [Compound I-337] showed an IC50 of 23 nM. With `CC(=O)N[C@@H](C)/C=C/c1ccc(Oc2ccc(Cl)c(Cl)c2)nc1` [Compound I-338] the IC50 was 33 nM. Work on `CCc1ccc(Oc2ccc(/C=C/[C@H](C)NC(C)=O)cn2)c(Cl)c1` [Compound I-339] yielded an IC50 of 91 nM. `CC(=O)N[C@@H](C)/C=C/c1cnc(Oc2ccc(OCC3CC3)cc2Cl)n1C` [Compound I-341] gave an IC50 of 450 nM. For `CC(=O)N[C@@H](C)/C=C/c1ccc(Oc2ccc(-c3ccccc3C)cc2Cl)nc1` [Compound I-342], the IC50 was 120 nM. In the case of `CC(=O)N[C@@H](C)/C=C/c1ccc(Oc2ccc(-c3cccc(C)c3)cc2Cl)nc1` [Compound I-343], the IC50 is reported as 46 nM. Work on `CC(=O)N[C@@H](C)/C=C/c1ccc(Oc2ccc(-c3ccc(C)cc3)cc2Cl)nc1` [Compound I-344] yielded an IC50 of 51 nM. For `CC(=O)N[C@@H](C)/C=C/c1ccc(Oc2ccc(-c3ccc(C#N)cc3)cc2Cl)nc1` [Compound I-345], the IC50 was 52 nM. Work on `CC(=O)N[C@@H](C)/C=C/c1ccc(Oc2ccc(-c3cccc(C#N)c3)cc2Cl)nc1` [Compound I-346] yielded an IC50 of 440 nM.

Same assay, conditions: inhibition activity on human ACC2, untitled table (Table 81); read-out: IC50
`CC(=O)N[C@@H](C)/C=C/c1cnn(Cc2ccc(OCC3CC3)c(Cl)c2Cl)c1` [Compound I-262] gave an IC50 of 660 nM. `CC(=O)N[C@@H](C)/C=C/c1cnn(Cc2cc(Cl)c(OCC3CC3)c(Cl)c2)c1` [Compound I-264] was tested, and the IC50 was 840 nM. `CC(=O)N[C@@H](C)/C=C/c1cnn(Cc2cc(F)c(OCC3CC3)c(Cl)c2)c1` [Compound I-265] gave an IC50 of 1100 nM. For `CC(=O)N[C@@H](C)/C=C/c1ccc(Oc2ccc(C3CC3)cc2Cl)nc1` [Compound I-266], the IC50 was 26 nM. For `CC(=O)N[C@@H](C)/C=C/c1ccc(Oc2ccc(-c3ccccc3)cc2Cl)nc1` [Compound I-267], the IC50 was 44 nM. `CC(=O)N[C@@H](C)/C=C/c1ccc(Oc2ccc(-c3ncco3)cc2Cl)nc1` [Compound I-268] gave an IC50 of 110 nM. `CCCc1ccc(Oc2ccc(/C=C/[C@H](C)NC(C)=O)cn2)cn1` [Compound I-269] gave an IC50 of 120 nM. `COc1ccc(Oc2ccc(/C=C(\C)C(C)NC(C)=O)cn2)c(Cl)c1` (centres unmarked) [Compound I-270] showed an IC50 of 390 nM. Compound `CCOc1ccc(Oc2ccc(/C=C(\C)C(C)NC(C)=O)cn2)c(Cl)c1` (centres unmarked) [Compound I-271] has an IC50 of 79 nM. In the case of `CC(=O)N[C@@H](C)/C=C/c1ccc(Oc2ccc(N3CCCC3=O)cc2Cl)nc1` [Compound I-272], the IC50 is reported as 450 nM. `CC(=O)N[C@@H](C)/C=C/c1ccc(Oc2ccc(Cl)cc2Cl)nc1` [Compound I-273] showed an IC50 of 99 nM. In the case of `CC(=O)N[C@@H](C)/C=C/c1cnc(Oc2ccc(Br)c(Cl)c2)nc1` [Compound I-274], the IC50 is reported as 350 nM. Work on `CC#Cc1ccc(Oc2ccc(/C=C/[C@H](C)NC(C)=O)cn2)c(Cl)c1` [Compound I-275] yielded an IC50 of 17 nM. Compound `CCOc1cc(F)cc(Oc2ccc(/C=C/[C@H](C)NC(C)=O)cn2)c1` [Compound I-276] has an IC50 of 150 nM. `CC(=O)N[C@@H](C)/C=C/c1ccc(Oc2cc(F)cc(OC(C)C)c2)nc1` [Compound I-277] was tested, and the IC50 was 230 nM. With `CCOc1ccc(F)c(Oc2ccc(/C=C/[C@H](C)NC(C)=O)cn2)c1` [Compound I-278] the IC50 was 79 nM. For `CC(=O)N[C@@H](C)/C=C/c1ccc(Oc2cc(OC(C)C)ccc2F)nc1` [Compound I-279], the IC50 was 59 nM. Compound `CCOc1cc(Oc2ccc(/C=C/[C@H](C)NC(C)=O)cn2)ccc1F` [Compound I-280] has an IC50 of 170 nM. With `CC(=O)N[C@@H](C)/C=C/c1ccc(Oc2ccc(F)c(OC(C)C)c2)nc1` [Compound I-281] the IC50 was 130 nM. In the case of `CC(=O)NC(C)/C(C)=C/c1ccc(Oc2ccc(OCC3CC3)cc2Cl)nc1` (centres unmarked) [Compound I-282], the IC50 is reported as 13 nM. With `CC(=O)NC(C)/C(C)=C/c1ccc(Oc2ccc(O)cc2Cl)nc1` (centres unmarked) [Compound I-283] the IC50 was 3200 nM. `CC(=O)N[C@@H](C)/C=C/c1cnc(Oc2ccc(NC(=O)CC(C)C)c(Cl)c2)nc1` [Compound I-284] showed an IC50 of 860 nM. `CC(=O)N[C@@H](C)/C=C/c1cnc(Oc2ccc(NC3CCCC3)c(Cl)c2)nc1` [Compound I-285] showed an IC50 of 96 nM. Compound `CCOc1ccc(Oc2cnc(/C=C/[C@H](C)NC(C)=O)cn2)c(Cl)c1` [Compound I-286] has an IC50 of 48 nM. `CC(=O)N[C@@H](C)/C=C/c1ccc(Oc2ccc(CCC3CC3)cc2Cl)nc1` [Compound I-287] showed an IC50 of 18 nM. Compound `CCN(CC)c1ccc(Oc2ccc(/C=C/[C@H](C)NC(C)=O)cn2)c(Cl)c1` [Compound I-288] has an IC50 of 36 nM. Compound `CC(=O)N[C@@H](C)/C=C/c1ccc(Oc2ccc(Br)c(Cl)c2)nc1` [Compound I-289] has an IC50 of 28 nM. For `CC(=O)NC(C)(C)/C(C)=C/c1ccc(Oc2ccc(OCC3CC3)cc2Cl)nc1` [Compound I-290], the IC50 was 600 nM. For `CC(=O)N[C@@H](C)/C=C/c1cnc(Oc2ccc(OCC3CC3)c(Cl)c2)cn1` [Compound I-291], the IC50 was 18 nM. With `CC(=O)N[C@@H](C)/C=C/c1cnn(Cc2cc(F)c(OCC3CC3)cc2F)c1` [Compound I-292] the IC50 was 1600 nM. Work on `CC(=O)N[C@@H](C)/C=C/c1ccc(Oc2cncc(OCC3CC3)c2)nc1` [Compound I-293] yielded an IC50 of 1300 nM. `CCCc1ncc(Oc2ccc(/C=C/[C@H](C)NC(C)=O)cn2)cc1Cl` [Compound I-294] gave an IC50 of 150 nM. Work on `CC/C(=C\c1ccc(Oc2cnc(OCC3CC3)cc2Cl)nc1)C(C)NC(C)=O` (centres unmarked) [Compound I-295] yielded an IC50 of 2800 nM. Work on `COCCOc1ccc(Oc2ccc(/C=C/[C@H](C)NC(C)=O)cn2)c(Cl)c1` [Compound I-296] yielded an IC50 of 110 nM. `CC(=O)N[C@@H](C)/C=C/c1ccc(Oc2ccc(C3CC3)c(Cl)c2)nc1` [Compound I-298] showed an IC50 of 58 nM. `CCOc1ccc(Oc2cnc(/C=C/[C@H](C)NC(C)=O)cn2)cc1Cl` [Compound I-299] showed an IC50 of 38 nM. `CC(=O)N[C@@H](C)/C=C/c1ccc(Oc2cncc(OC(C)C)c2)nc1` [Compound I-301] gave an IC50 of 1900 nM. For `CCCc1cncc(Oc2ccc(/C=C/[C@H](C)NC(C)=O)cn2)c1` [Compound I-302], the IC50 was 510 nM. In the case of `CC(=O)N[C@@H](C)/C=C/c1ccc(Oc2ccc(OCCOC3CCCCO3)cc2Cl)nc1` (some centres unmarked) [Compound I-303], the IC50 is reported as 630 nM. `CC(=O)N[C@@H](C)/C=C/c1ccc(Oc2ccc(OCCO)cc2Cl)nc1` [Compound I-304] was tested, and the IC50 was 1400 nM. `CCCc1ccc(Oc2ccc(/C=C/[C@H](C)NC(C)=O)cn2)cc1Cl` [Compound I-305] gave an IC50 of 11 nM. Work on `CCCc1ccc(Oc2ccc(/C=C/[C@H](C)NC(C)=O)cn2)cc1` [Compound I-306] yielded an IC50 of 24 nM. With `CCNC(=O)c1cc(C(=O)N[C@@H](C)/C=C/c2cnn(Cc3ccc(Oc4ccccc4)cc3)c2)ccn1` [Compound I-307] the IC50 was 48 nM. Compound `CCNC(=O)c1cc(C(=O)N[C@@H](C)/C=C/c2cnn(Cc3ccc(OC(F)(F)F)cc3)c2)ccn1` [Compound I-308] has an IC50 of 480 nM. Work on `CCNC(=O)c1cc(C(=O)N[C@@H](C)/C=C/c2cnn(Cc3ccc(F)c(C(F)(F)F)c3)c2)ccn1` [Compound I-309] yielded an IC50 of 2800 nM. `CCNC(=O)c1cc(C(=O)N[C@@H](C)/C=C/c2cnn(Cc3ccc(Cl)c(Cl)c3)c2)ccn1` [Compound I-310] gave an IC50 of 1300 nM. Work on `CCNC(=O)c1cc(C(=O)N[C@@H](C)/C=C/c2cnn(Cc3ccc(C(C)C)cc3)c2)ccn1` [Compound I-312] yielded an IC50 of 570 nM. Compound `CCNC(=O)c1cc(C(=O)N[C@@H](C)/C=C/c2cnn(Cc3ccc(F)c(Cl)c3)c2)ccn1` [Compound I-314] has an IC50 of 960 nM. Compound `CCNC(=O)c1cc(C(=O)N[C@@H](C)/C=C/c2cnn(Cc3c(C)cc(C)cc3C)c2)ccn1` [Compound I-315] has an IC50 of 3900 nM. For `CCNC(=O)c1cc(C(=O)N[C@@H](C)/C=C/c2cnn(Cc3ccc(OC)cc3Cl)c2)ccn1` [Compound I-317], the IC50 was 350 nM.
